Data on six compounds can be found in PubChem BioAssay AID258 (DTP/NCI, 2004).

This assay deals with CD2F1 mice, L1210 leukemia sc, survival T/C. Briefly: NCI In Vivo Anticancer Drug Screen. Data for tumor model L1210 Leukemia (subcutaneous) in CD2F1 (CDF1) mice. To be noted: endpoint: median survival time, higher = longer survival. The essentials: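 T/C ratio: treated-group survival or tumor size over vehicle-control group measurement, in mice carrying transplanted tumors.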

Several values for one entry are separate records, joined by “and”; a condition that tells them apart may be missing. Equal values may be shown once. Toxic doses and inconclusive results are not listed.

Take `Nc1ccn([C@@H]2C=C(CO)[C@@H](O)[C@H]2O)c(=O)n1`: the T/C is 116 % of control (dose: 0.13 mg/kg/injection, schedule: Q03HX024 (ip), vehicle: saline); 112 % of control (dose: 0.19 mg/kg/injection, schedule: Q03HX024 (ip), vehicle: saline); 108 % of control (dose: 0.3 mg/kg/injection, schedule: Q06HX018 (ip), vehicle: saline); 100 % of control and 103 % of control (dose: 0.44 mg/kg/injection, schedule: Q01DX009 (ip), vehicle: saline); 119 % of control (dose: 0.44 mg/kg/injection, schedule: Q03HX016 (ip), vehicle: saline); 89 % of control (dose: 0.44 mg/kg/injection, schedule: Q03HX024 (ip), vehicle: saline). The T/C was 103 % of control and 113 % of control (2×) (dose: 0.45 mg/kg/injection, schedule: Q01DX009 (ip), vehicle: saline); 99 % of control (dose: 0.45 mg/kg/injection, schedule: Q01DX009 (sc), vehicle: saline); 118 % of control (dose: 0.45 mg/kg/injection, schedule: Q03HX008 (ip), vehicle: saline); 163 % of control (dose: 0.45 mg/kg/injection, schedule: Q06HX018 (ip), vehicle: saline); 119 % of control (dose: 0.67 mg/kg/injection, schedule: Q03HX008 (ip), vehicle: saline); 214 % of control (dose: 0.67 mg/kg/injection, schedule: Q06HX018 (ip), vehicle: saline). Besides, the T/C was 157 % of control (dose: 0.8 mg/kg/injection, schedule: Q01DX009 (ip), vehicle: saline); 120 % of control (dose: 0.99 mg/kg/injection, schedule: Q03HX008 (ip), vehicle: saline); 151 % of control (dose: 1.0 mg/kg/injection, schedule: Q01DX005 (iv), vehicle: saline); 180 % of control (dose: 1.0 mg/kg/injection, schedule: Q01DX009 (sc), vehicle: saline); 161 % of control (dose: 1.0 mg/kg/injection, schedule: Q03HX016 (ip), vehicle: saline); 108 % of control (dose: 1.0 mg/kg/injection, schedule: Q06HX018 (ip), vehicle: saline). The T/C is 189 % of control (dose: 1.2 mg/kg/injection, schedule: Q01DX009 (ip), vehicle: saline); 97 % of control (dose: 1.49 mg/kg/injection, schedule: Q01DX005 (iv), vehicle: saline); 89 % of control (dose: 1.49 mg/kg/injection, schedule: Q03HX008 (ip), vehicle: saline); 168 % of control (dose: 1.5 mg/kg/injection, schedule: Q01DX005 (iv), vehicle: saline); 182 % of control (dose: 1.5 mg/kg/injection, schedule: Q01DX009 (sc), vehicle: saline); 162 % of control (dose: 2.2 mg/kg/injection, schedule: Q01DX005 (iv), vehicle: saline). The T/C by setting is: (dose: 2.23 mg/kg/injection, schedule: Q01DX005 (iv), vehicle: saline) 89 % of control; (dose: 2.25 mg/kg/injection, schedule: Q01DX009 (sc), vehicle: saline) 97 % of control; (dose: 3.0 mg/kg/injection, schedule: Q03HX008 (ip), vehicle: saline) 154 % of control; (dose: 3.3 mg/kg/injection, schedule: Q01DX005 (iv), vehicle: saline) 90 % of control; (dose: 4.5 mg/kg/injection, schedule: Q03HX008 (ip), vehicle: saline) 113 % of control; (dose: 4.8 mg/kg/injection, schedule: Q01DX005 (iv), vehicle: saline) 86 % of control. Moreover, the T/C is 118 % of control (dose: 5.0 mg/kg/injection, schedule: Q01DX001 (ip), vehicle: saline); 152 % of control (dose: 9.0 mg/kg/injection, schedule: Q03HX004 (iv), vehicle: saline); 123 % of control (dose: 10.7 mg/kg/injection, schedule: Q01DX001 (ip), vehicle: saline); 110 % of control and 123 % of control (dose: 11.2 mg/kg/injection, schedule: Q01DX001 (ip), vehicle: saline); 119 % of control (dose: 11.2 mg/kg/injection, schedule: Q01DX001 (iv), vehicle: saline); 100 % of control (dose: 16.9 mg/kg/injection, schedule: Q01DX001 (iv), vehicle: saline). In addition, the T/C reads like this: (dose: 36.0 mg/kg/injection, schedule: Q01DX001 (ip), vehicle: saline) 154 % of control; (dose: 37.9 mg/kg/injection, schedule: Q01DX001 (iv), vehicle: saline) 90 % of control; (dose: 54.0 mg/kg/injection, schedule: Q01DX001 (ip), vehicle: saline) 164 % of control; (dose: 54.0 mg/kg/injection, schedule: Q01DX001 (iv), vehicle: saline) 158 % of control; (dose: 56.8 mg/kg/injection, schedule: Q01DX001 (iv), vehicle: saline) 88 % of control; (dose: 81.0 mg/kg/injection, schedule: Q01DX001 (ip), vehicle: saline) 106 % of control. Besides, the T/C is, setting by setting: (dose: 81.0 mg/kg/injection, schedule: Q01DX001 (iv), vehicle: saline) 103 % of control; (dose: 121.0 mg/kg/injection, schedule: Q01DX001 (iv), vehicle: saline) 91 % of control; (dose: 88.0 micrograms/kg/injection, schedule: Q03HX024 (ip), vehicle: saline) 112 % of control; (dose: 200.0 micrograms/kg/injection, schedule: Q03HX024 (ip), vehicle: saline) 166 % of control.
As to `O=C(Nc1cccnc1)c1ccc([N+](=O)[O-])s1`, the T/C by setting is: (dose: 25.0 mg/kg/injection, schedule: Q01DX005 (ip), vehicle: saline) 108 % of control; (dose: 50.0 mg/kg/injection, schedule: Q01DX005 (ip), vehicle: saline) 102 % of control; (dose: 100.0 mg/kg/injection, schedule: Q01DX005 (ip), vehicle: saline) 111 % of control.
Consider `NS(=O)(=O)OCCCCCCCOS(N)(=O)=O`, for which the T/C by setting is: (dose: 30.0 mg/kg/injection, schedule: Q01DX009 (ip), vehicle: saline with Tween-80) 124 % of control; (dose: 83.3 mg/kg/injection, schedule: Q01DX009 (ip), vehicle: saline with Tween-80) 179 % of control; (dose: 138.8 mg/kg/injection, schedule: Q01DX009 (ip), vehicle: saline with Tween-80) 118 % of control.
As to `O=NN(CCCl)C(=O)NC12CC3CC(CC(C3)C1)C2`, the T/C reads like this: (dose: 6.25 mg/kg/injection, schedule: Q01DX Z (sc), vehicle: carboxymethylcellulose (CMC)) 100 % of control; (dose: 12.5 mg/kg/injection, schedule: Q01DX Z (sc), vehicle: carboxymethylcellulose (CMC)) 100 % of control; (dose: 25.0 mg/kg/injection, schedule: Q01DX Z (sc), vehicle: carboxymethylcellulose (CMC)) 110 % of control; (dose: 50.0 mg/kg/injection, schedule: Q01DX Z (sc), vehicle: carboxymethylcellulose (CMC)) 325 % of control; (dose: 100.0 mg/kg/injection, schedule: Q01DX Z (sc), vehicle: carboxymethylcellulose (CMC)) 240 % of control.
In the case of `NC(=O)c1ncn2c(=O)n(CCCl)nnc12`, the T/C is 123 % of control (dose: 1.56 mg/kg/injection, schedule: Q01DX009 (ip), vehicle: suspension in saline); 195 % of control (dose: 6.25 mg/kg/injection, schedule: Q01DX009 (ip), vehicle: suspension in saline); 309 % of control (dose: 12.5 mg/kg/injection, schedule: Q01DX009 (ip), vehicle: suspension in saline); 206 % of control (dose: 25.0 mg/kg/injection, schedule: Q01DX009 (ip), vehicle: suspension in saline); 100 % of control (dose: 50.0 mg/kg/injection, schedule: Q01DX009 (ip), vehicle: suspension in saline).
Regarding `CCN(CC)CCNc1ccc(C)c2sc3ccccc3c(=O)c12`, the T/C was 116 % of control (dose: 25.0 mg/kg/injection, schedule: Q01DX009 (ip), vehicle: saline); 158 % of control (dose: 100.0 mg/kg/injection, schedule: Q01DX009 (ip), vehicle: saline); 87 % of control (dose: 200.0 mg/kg/injection, schedule: Q01DX009 (ip), vehicle: saline).
